{"source": "patent US11643421B2", "about": "“Process for the preparation of tricyclic PI3K inhibitor compounds and methods for using the same for the treatment of cancer” (priority 2015, dated 2023)", "key": {"[1]": {"assay": "Plasma and brain concentrations in GS2 tumor-bearing mice", "format": "in vivo", "details": "mouse, 15 mg/kg PO; for concentration at 2 h: 2 h post-dose; for concentration at 8 h: 8 h post-dose"}, "pAKT": {"test_system": "pAKT", "assay": "Modulation of pAkt in the brain of healthy mice", "format": "in vivo, Female CD-1 mice", "details": "single oral dose 25 mg/kg", "experimental": "Inhibition of the PI3K pathway was assessed in the brain of healthy mice through measurement of two markers, pAkt and pS6. […] Brains and plasma were collected at 1 and 6 hours post-dose, from 3 animals at each time point. […] For PD analysis, cell extraction buffer (Invitrogen, Camarillo, Calif.) containing 10 mM Tris pH 7.4, 100 mM NaCl, 1 mM EDTA, 1 mM EGTA, 1 mM NaF, 20 mM Na4P2O7, 2 mM Na3VO4, 1% Triton X-100, 10% glycerol, 0.1% SDS, and 0.5% deoxycholate was supplemented with phosphatase, protease inhibitors (Sigma, St. Louis, Mo.) and 1 mM PMSF and added to frozen brain biopsies. Brains were homogenized with a small pestle (Konte Glass Company, Vineland, N.J.), sonicated briefly on ice, and centrifuged at 20,000 g for 20 minutes at 4° C. Protein concentration was determined using BCA protein assay (Pierce, Rockford, Ill.). Proteins were separated by electrophoresis and transferred to NuPage nitrocellulose membranes (Invitrogen, Camarillo, Calif.). Licor Odyssey Infrared detection system (Licor, Lincoln, Nebr.) was used to assess and quantify protein expression. […] The differences in marker levels between the treated and control mice were evaluated using the Student's t-test (Prism 5, GraphPad)."}, "AKT1": {"biological_target": "AKT1 (Homo sapiens, UniProt P31749)", "sequence (P31749 whole entry, species assumed)": "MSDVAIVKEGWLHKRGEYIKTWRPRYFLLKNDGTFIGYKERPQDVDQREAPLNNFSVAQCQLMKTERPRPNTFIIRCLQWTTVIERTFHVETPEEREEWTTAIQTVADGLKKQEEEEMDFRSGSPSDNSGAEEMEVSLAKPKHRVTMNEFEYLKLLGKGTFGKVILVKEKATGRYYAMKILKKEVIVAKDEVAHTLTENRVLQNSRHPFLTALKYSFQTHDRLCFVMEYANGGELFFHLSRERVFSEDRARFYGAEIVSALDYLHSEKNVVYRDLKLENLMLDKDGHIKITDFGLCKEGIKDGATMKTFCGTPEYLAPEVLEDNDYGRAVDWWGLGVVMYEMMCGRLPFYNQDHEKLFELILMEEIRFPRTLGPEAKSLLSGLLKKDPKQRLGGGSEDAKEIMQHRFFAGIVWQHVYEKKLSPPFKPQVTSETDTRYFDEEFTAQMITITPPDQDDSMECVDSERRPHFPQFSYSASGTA", "assay": "biochemical", "details": "read-out: % inhib"}, "[2]": {"assay": "In vivo pharmacokinetics IV and PO", "parameters": "species or system Male Sprague-Dawley rats", "details": "Rat", "experimental": "The hepatocyte stability of compound IIIat was evaluated across preclinical species. Certain in vivo pharmacokinetic parameters were also evaluated. […] Male Sprague-Dawley rats, female CD-1 mice, male cynomolgus monkeys and beagle dogs were dosed intravenously with 1 mg/kg of compound IIIat prepared in 60% PEG400/10% Ethanol. Compound IIIat was administered orally (PO) at the indicated dose in 0.5% methylcellulose with 0.2% Tween 80 (MCT)."}, "high-grade gliomas": {"test_system": "high-grade gliomas", "assay": "Phase I study, best overall response (RANO)", "format": "in vivo, human", "details": "evaluable patients", "experimental": "Tumor response was determined by either an assessment of FDG-PET or by Response Assessment in Neuro-Oncology (RANO).\nTumor response under the RANO guidelines was done generally in accordance with the Wen method (Wen P Y, Macdonald D R, Reardon D A, et al. “Updated response assessment criteria for high-grade gliomas: Response Assessment in Neuro-Oncology Working Group”, J Clin Oncol 2010; 28:1963-72) where the disease is categorized as “complete response”, “partial response”, “stable disease” and “progression”. Among other factors, a complete response required all of the following: complete disappearance of all enhancing measurable and non-measurable disease sustained for at least 4 weeks; no new lesions; and stable or improved non-enhancing (T2/FLAIR) lesions. A partial response required, among other factors, ≥50% decrease, compared with baseline, in the sum of the products of the perpendicular diameters of all measurable enhancing lesions (such as measured by MRI) sustained for at least 4 weeks; no progression of non-measurable disease; and no new lesions."}, "human P-gp (MDR1)": {"biological_target": "T1, human P-gp (MDR1) (Homo sapiens, UniProt P08183)", "T1 construct": "host or cells: MDR1-MDCKI (canine kidney)", "T1 sequence (P08183 whole entry)": "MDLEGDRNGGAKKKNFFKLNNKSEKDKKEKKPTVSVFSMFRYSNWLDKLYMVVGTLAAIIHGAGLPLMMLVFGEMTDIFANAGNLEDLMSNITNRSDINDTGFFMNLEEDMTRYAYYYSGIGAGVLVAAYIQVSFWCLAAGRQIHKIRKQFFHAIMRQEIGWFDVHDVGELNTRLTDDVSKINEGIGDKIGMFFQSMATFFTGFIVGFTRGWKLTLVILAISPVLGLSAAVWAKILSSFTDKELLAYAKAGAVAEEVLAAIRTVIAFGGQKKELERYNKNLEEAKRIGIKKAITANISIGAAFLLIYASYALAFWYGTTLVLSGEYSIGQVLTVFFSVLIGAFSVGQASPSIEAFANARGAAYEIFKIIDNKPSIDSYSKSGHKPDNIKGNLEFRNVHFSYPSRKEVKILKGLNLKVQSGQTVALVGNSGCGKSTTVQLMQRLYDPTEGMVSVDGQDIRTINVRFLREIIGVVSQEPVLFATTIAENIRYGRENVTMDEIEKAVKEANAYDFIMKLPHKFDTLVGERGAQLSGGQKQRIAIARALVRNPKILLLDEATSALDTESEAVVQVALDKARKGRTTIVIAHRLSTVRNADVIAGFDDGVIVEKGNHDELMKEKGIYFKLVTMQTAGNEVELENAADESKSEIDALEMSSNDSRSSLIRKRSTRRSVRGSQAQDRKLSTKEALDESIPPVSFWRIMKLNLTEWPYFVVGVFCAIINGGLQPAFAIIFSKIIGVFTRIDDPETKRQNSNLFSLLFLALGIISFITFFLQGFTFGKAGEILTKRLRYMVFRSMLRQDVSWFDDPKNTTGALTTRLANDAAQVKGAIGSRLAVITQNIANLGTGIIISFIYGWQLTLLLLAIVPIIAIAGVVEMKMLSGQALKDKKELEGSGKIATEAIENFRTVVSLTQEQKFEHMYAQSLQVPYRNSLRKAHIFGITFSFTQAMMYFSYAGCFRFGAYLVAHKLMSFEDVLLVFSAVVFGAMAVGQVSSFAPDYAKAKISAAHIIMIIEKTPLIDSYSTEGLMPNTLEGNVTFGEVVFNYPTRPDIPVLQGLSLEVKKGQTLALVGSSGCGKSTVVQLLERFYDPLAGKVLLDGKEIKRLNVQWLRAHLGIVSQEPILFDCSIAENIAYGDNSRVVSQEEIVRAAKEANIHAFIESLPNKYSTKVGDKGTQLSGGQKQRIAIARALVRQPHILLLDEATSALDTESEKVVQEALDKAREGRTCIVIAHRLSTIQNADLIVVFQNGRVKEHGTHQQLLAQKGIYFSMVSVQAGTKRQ", "assay": "Transport assay in MDR1-MDCKI cell monolayers", "format": "in vitro ADME", "details": "MDCK-MDR1, 2-hour incubation", "experimental": "MDR1-MDCKI cells were licensed from the NCI (National Cancer Institute, Bethesda, Md.) and Bcrp1-MDCKII, BCRP-MDCKII and Mdr1a-LLC-PK1 cells were obtained from the Netherlands Cancer Institute (Amsterdam. The Netherlands). […] The compound was dissolved in transport buffer consisting of Hank's balanced salt solution (HBSS) with 10 mM HEPES (Invitrogen Corporation, Grand Island, N.Y.). Lucifer Yellow (Sigma-Aldrich, St. Louis, Mo.) was used as the paracellular and monolayer integrity marker. […] The efflux ratio (ER) was calculated (Papp, B-A/Papp, A-B)."}, "[3]": {"assay": "MALDI imaging of brain distribution, GS2 orthotopic model", "format": "in vivo, female nude mice", "details": "15 mg/kg PO, 1 hour post dose", "experimental": "Mice were euthanized at 1 and 6 hours post-dose via exsanguination by perfusion under anesthesia. Brains were excised, flash frozen in liquid N2 and stored in a −80° C. freezer until analyzed. Fresh frozen tissue sections were obtained on a cryomicrotome (Leica CM3050S, Buffalo Grove, Ill.) at 12 μm thickness and thaw-mounted onto indium tin oxide coated glass slides (Bruker Daltonics, Billerica, Mass.). Tissue sections were an analyzed by imaging MALDI MS, providing signal intensities (and not absolute quantitation), followed by cresyl violet staining for histological interrogation.\nFor MALDI MAS analysis, a 40 mg/mL solution of 2,5-dihydroxybenzoic acid (Sigma-Aldrich, St. Louis, Mo.) was prepared in methanol:water (70:30 v/v). […] Matrix solution was homogenously spray-coated onto the tissue using a HTX TM-Sprayer (HTX technologies. Chapel Hill, N.C.). Matrix-coated tissue sections were transferred to the MALDI mass spectrometer (SolariX 7T FT-ICR, Bruker Daltonics, Bremen, Germany) for imaging analysis. […] Laser intensity and number of shots were optimized for sensitivity of the parent drug (1200 shots) with ion detection collected over the mass range of m/z 150-3000.\nFollowing completion of the imaging experiments, matrix coaling was removed by rinsing the glass slide in 100% methanol for 30 seconds or until the entire matrix was visibly removed. […]"}, "PKC_eta": {"biological_target": "PKC_eta (Homo sapiens, UniProt P24723)", "sequence (P24723 whole entry)": "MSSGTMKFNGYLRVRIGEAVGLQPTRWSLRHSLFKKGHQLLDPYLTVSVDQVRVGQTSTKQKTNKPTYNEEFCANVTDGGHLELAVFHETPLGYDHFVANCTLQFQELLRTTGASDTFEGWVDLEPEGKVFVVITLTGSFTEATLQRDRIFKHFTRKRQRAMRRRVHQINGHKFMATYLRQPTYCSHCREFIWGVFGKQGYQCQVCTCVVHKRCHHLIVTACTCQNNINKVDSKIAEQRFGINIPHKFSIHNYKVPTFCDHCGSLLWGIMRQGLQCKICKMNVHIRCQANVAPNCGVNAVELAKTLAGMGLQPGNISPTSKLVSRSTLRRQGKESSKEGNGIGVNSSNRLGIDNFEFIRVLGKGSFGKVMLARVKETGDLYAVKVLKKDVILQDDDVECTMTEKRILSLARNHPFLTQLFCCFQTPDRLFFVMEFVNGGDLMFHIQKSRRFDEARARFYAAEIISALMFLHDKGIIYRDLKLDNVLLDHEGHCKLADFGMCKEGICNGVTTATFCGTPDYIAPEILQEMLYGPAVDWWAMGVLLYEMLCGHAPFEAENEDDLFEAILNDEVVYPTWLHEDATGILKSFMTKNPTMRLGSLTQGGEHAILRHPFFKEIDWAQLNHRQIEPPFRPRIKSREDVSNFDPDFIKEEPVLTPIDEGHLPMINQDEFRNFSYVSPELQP", "assay": "biochemical", "details": "read-out: % inhib"}, "CamKIV": {"biological_target": "CamKIV (Homo sapiens, UniProt Q16566)", "sequence (Q16566 whole entry)": "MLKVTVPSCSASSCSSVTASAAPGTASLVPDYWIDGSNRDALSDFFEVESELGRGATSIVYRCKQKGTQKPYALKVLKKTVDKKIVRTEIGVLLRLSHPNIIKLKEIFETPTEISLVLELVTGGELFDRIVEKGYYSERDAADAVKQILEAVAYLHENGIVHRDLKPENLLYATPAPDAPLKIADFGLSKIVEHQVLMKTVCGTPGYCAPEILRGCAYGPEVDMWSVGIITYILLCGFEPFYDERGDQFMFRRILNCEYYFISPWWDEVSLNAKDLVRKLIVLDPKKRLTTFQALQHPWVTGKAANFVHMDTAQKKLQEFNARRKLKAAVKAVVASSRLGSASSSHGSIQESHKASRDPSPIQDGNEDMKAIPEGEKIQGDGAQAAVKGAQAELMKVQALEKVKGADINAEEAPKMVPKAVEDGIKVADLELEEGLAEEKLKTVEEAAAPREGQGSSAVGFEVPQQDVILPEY", "assay": "biochemical", "details": "read-out: % inhib"}, "[4]": {"details": "non-tumored half of the brain, read-out: Brain"}}, "note": "Read-outs that look alike come from different tables or passages of the source.", "data": [{"smiles": "CC1(C)OCCn2c1nc1c(N3CCOCC3)nc(-c3cnc(N)nc3)nc12", "note": "[GDC-0084, 5-(6,6-dimethyl-4-morpholino-8,9-dihydro-6H-[1,4]oxazino[3,4-e]purin-2-yl)pyrimidin-2-amine]", "values": [{"measurement": "concentration at 2 h", "setting": "[1]; plasma, read-out: Plasma", "result": "3.64 ± 2.05", "unit": "µM"}, {"measurement": "concentration at 8 h", "setting": "[1]; plasma, read-out: Plasma", "result": "2.01 ± 1.19", "unit": "µM"}, {"measurement": "concentration at 2 h", "setting": "[1]; [4]", "result": "5.51 ± 1.58", "unit": "µM"}, {"measurement": "concentration at 8 h", "setting": "[1]; [4]", "result": "2.48 ± 1.25", "unit": "µM"}, {"measurement": "Suppression of pAkt in brain", "setting": "pAKT; 1 hour post dose", "result": 90, "unit": "%"}, {"measurement": "Suppression of pAkt in brain", "setting": "pAKT; 6 hours after dosing", "result": "greater than 70%"}, {"measurement": "inhibition at 1 µM", "setting": "AKT1", "result": 0.7, "unit": "%"}, {"measurement": "In vivo Cl", "setting": "[2]; IV 1 mg/kg", "result": 28, "unit": "mL/min/kg"}, {"measurement": "Cmax", "setting": "[2]; PO 5 mg/kg in MCT", "result": 1.1, "unit": "μm"}, {"measurement": "F %", "setting": "[2]; PO 5 mg/kg in MCT", "result": 77, "unit": "%"}, {"measurement": "best overall response of progressive disease, patients", "setting": "high-grade gliomas", "result": 26, "unit": "patients"}, {"measurement": "best overall response of progressive disease, percent", "setting": "high-grade gliomas", "result": 55.3, "unit": "%"}, {"measurement": "best overall response stable disease, patients", "setting": "high-grade gliomas", "result": 19, "unit": "patients"}, {"measurement": "best overall response stable disease, percent", "setting": "high-grade gliomas", "result": 40.4, "unit": "%"}, {"measurement": "Papp A→B at 2 h, 5 μM", "setting": "human P-gp (MDR1)", "result": "13.5 ± 0.9", "unit": "×10⁻⁶ cm/s"}, {"measurement": "mean pixel intensity (MALDI imaging)", "setting": "[3]; GS2 tumors", "result": 0.34}, {"measurement": "mean pixel intensity (MALDI imaging)", "setting": "[3]; normal brain of GS2 tumor-bearing mice", "result": 0.55}, {"measurement": "inhibition at 1 µM", "setting": "PKC_eta", "result": -9, "unit": "%"}, {"measurement": "inhibition at 1 µM", "setting": "CamKIV", "result": 0.2, "unit": "%"}]}]}
